Measured values taken from patent US10689354B2, “Aminoazole derivative” (Teijin Pharma Limited, priority 2015, dated 2020).

target: T1, androgen receptor (AR-LBD) (Rattus norvegicus, UniProt P15207); test: Evaluation of androgen receptor affinity (PolarScreen Androgen Receptor Competitor Assay Kit, Red; fluorescence polarization); settings: 22° C. for 5 hours, relative to binding rate of 1 μM DHT, read-out: AR affinity (pEC50) (converted)
T1 construct: 5 μL of 2×AR-LBD/Fluoromone AL Red Complex contained in the kit; purchased Invitrogen
T1 sequence (P15207 651-882 limits assumed): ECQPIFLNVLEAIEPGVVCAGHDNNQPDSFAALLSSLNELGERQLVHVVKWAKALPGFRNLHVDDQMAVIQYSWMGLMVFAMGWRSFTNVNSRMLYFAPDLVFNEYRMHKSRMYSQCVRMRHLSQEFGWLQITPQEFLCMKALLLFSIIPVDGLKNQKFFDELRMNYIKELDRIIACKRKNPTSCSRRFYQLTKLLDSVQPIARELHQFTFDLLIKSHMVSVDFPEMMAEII
Procedure, shortened: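 Compounds were mixed with AR-LBD/Fluoromone AL Red complex and incubated 5 h at 22° C before fluorescence polarization was read. Binding was expressed relative to 1 μM dihydrotestosterone, and pEC50 (concentration giving 50% of that binding) came from a 4-parameter fit.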

| EC50 [nM] | SMILES |
| --- | --- |
| > 2000 | Cc1sc(N(c2ccc(C#N)cc2)[C@@H](CO)c2ccccc2)nc1C(=O)NS(C)(=O)=O [Compound 483, 2-(4-cyano-N-[(1R)-2-hydroxy-1-phenyl-ethyl]anilino)-5-methyl-N-methylsulfonyl-thiazole-4-carboxamide] |
| > 2000 | Cc1sc(N(Cc2ccccc2)c2ccc(OCC(=O)N(C)C)cc2)nc1C(=O)NS(C)(=O)=O [Example 214, 2-[N-benzyl-4-[2-(dimethylamino)-2-oxo-ethoxy]anilino]-5-methyl-N-methylsulfonyl-thiazole-4-carboxamide] |
| > 2000 | CNC(=O)COc1ccc(N(Cc2ccccc2)c2nc(C(=O)NS(C)(=O)=O)c(C)s2)cc1 [Example 213, 2-[N-benzyl-4-[2-(methylamino)-2-oxo-ethoxy]anilino]-5-methyl-N-methylsulfonyl-thiazole-4-carboxamide] |
| > 2000 | Cc1sc(N(Cc2ccccc2)c2ccc(OCC(=O)O)cc2)nc1C(=O)NS(C)(=O)=O [Example 212, 2-[4-[benzyl-[5-methyl-4-(methylsulfonylcarbamoyl)thiazol-2-yl]amino]phenoxy]acetic acid] |
| 79.4 | Cc1ccccc1CN(c1ccc(C#N)cc1)c1nc(C(=O)NS(C)(=O)=O)c(Cl)s1 [Example 259, 5-chloro-2-[4-cyano-N-(o-tolylmethyl)anilino]-N-methylsulfonyl-thiazole-4-carboxamide] |
| 25.1 | Cc1ccc(CN(c2ccc(C#N)cc2)c2nc(C(=O)NS(C)(=O)=O)c(Cl)s2)cc1 [Example 267, 5-chloro-2-[4-cyano-N-(p-tolylmethyl)anilino]-N-methylsulfonyl-thiazole-4-carboxamide] |
| > 2000 | Cc1sc(N(CCn2nccn2)Cc2ccccc2)nc1C(=O)NS(C)(=O)=O [Compound 679, 2-[benzyl-[2-(triazol-2-yl)ethyl]amino]-5-methyl-N-methylsulfonyl-thiazole-4-carboxamide] |
| > 2000 | Cc1sc(N(CCc2ccc(Cl)cc2)CC2CCCCC2)nc1C(=O)NS(=O)(=O)C(F)(F)F [Compound 700, 2-[2-(4-chlorophenyl)ethyl-(cyclohexylmethyl)amino]-5-methyl-N-(trifluoromethylsulfonyl)thiazole-4-carboxamide] |
| > 2000 | Cc1sc(N(Cc2ccccc2)c2ccccc2)nc1C(=O)NS(C)(=O)=O [Compound 428, 2-(N-benzylanilino)-5-methyl-N-methylsulfonyl-thiazole-4-carboxamide] |
| > 2000 | Cc1sc(N(CCn2cccn2)Cc2ccccc2)nc1C(=O)NS(C)(=O)=O [Compound 688, 2-[benzyl(2-pyrazol-1-ylethyl)amino]-5-methyl-N-methylsulfonyl-thiazole-4-carboxamide] |
| 794 | CCS(=O)(=O)NC(=O)c1nc(N(CCc2ccc(Cl)cc2)CC2CCCCC2)sc1C [Compound 698, 2-[2-(4-chlorophenyl)ethyl-(cyclohexylmethyl)amino]-N-ethylsulfonyl-5-methyl-thiazole-4-carboxamide] |
| > 2000 | Cc1sc(N(Cc2ccccc2)c2cccc3ccccc23)nc1C(=O)NS(C)(=O)=O [Example 227, 2-[benzyl(1-naphthyl)amino]-5-methyl-N-methylsulfonyl-thiazole-4-carboxamide] |
| > 2000 | Cc1sc(N(Cc2ccccc2)c2ccc(OCCOCc3ccccc3)cc2)nc1C(=O)NS(C)(=O)=O [Example 209, 2-[N-benzyl-4-(2-benzyloxyethoxy)anilino]-5-methyl-N-methylsulfonyl-thiazole-4-carboxamide] |
| 39.8 | Cc1ccc(CN(c2ccc(C#N)cc2)c2nc(C(=O)NS(C)(=O)=O)c(Br)s2)cc1 [Example 246, 5-bromo-2-[4-cyano-N-(p-tolylmethyl)anilino]-N-methylsulfonyl-thiazole-4-carboxamide] |
| > 2000 | Cc1sc(N(Cc2ccccc2)c2ccccc2O)nc1C(=O)NS(C)(=O)=O [Example 207, 2-(N-benzyl-2-hydroxy-anilino)-5-methyl-N-methylsulfonyl-thiazole-4-carboxamide] |
| > 2000 | Cc1sc(N(Cc2ccccc2)c2cccc(CCOCc3ccccc3)c2)nc1C(=O)NS(C)(=O)=O [Example 231, 2-[N-benzyl-3-(2-benzyloxyethyl)anilino]-5-methyl-N-methylsulfonyl-thiazole-4-carboxamide] |
| 398 | Cc1sc(N(CCC2CCOCC2)Cc2ccccc2)nc1C(=O)NS(C)(=O)=O [Example 300, 2-[benzyl(2-tetrahydropyran-4-ylethyl)amino]-5-methyl-N-methylsulfonyl-thiazole-4-carboxamide] |
| > 2000 | Cc1sc(N(Cc2ccccc2)C2CCCCC2)nc1C(=O)NS(C)(=O)=O [Compound 670, 2-[benzyl(cyclohexyl)amino]-5-methyl-N-methylsulfonyl-thiazole-4-carboxamide] |
| > 2000 | Cc1sc(N(Cc2ccccc2)c2ccc(C#N)cc2)nc1C(=O)NS(=O)(=O)CCN1CCOCC1 [Compound 429, 2-(N-benzyl-4-cyano-anilino)-5-methyl-N-(2-morpholinoethylsulfonyl)thiazole-4-carboxamide] |
| > 2000 | Cc1nc(CN(c2ccc(C#N)cc2)c2nc(C(=O)NS(C)(=O)=O)c(C)o2)cs1 [Compound 619, 2-[4-cyano-N-[(2-methylthiazol-4-yl)methyl]anilino]-5-methyl-N-methylsulfonyl-oxazole-4-carboxamide] |

Further lines, the compound ahead of its results:

| SMILES | EC50 [nM] |
| --- | --- |
| Cc1sc(N(Cc2cc(C(F)(F)F)ccc2C(F)(F)F)c2ccc(C#N)cc2)nc1C(=O)NS(C)(=O)=O [Compound 415, 2-[N-[[2,5-bis(trifluoromethyl)phenyl]methyl]-4-cyano-anilino]-5-methyl-N-methylsulfonyl-thiazole-4-carboxamide] | > 2000 |
| Cc1sc(N(CC2CCOCC2)c2ccc(C#N)cc2)nc1C(=O)NS(C)(=O)=O [Compound 346, 2-[4-cyano-N-(tetrahydropyran-4-ylmethyl)anilino]-5-methyl-N-methylsulfonyl-thiazole-4-carboxamide] | > 2000 |
| Cc1sc(N(Cc2ccccc2)c2ccc3[nH]ccc3c2)nc1C(=O)NS(C)(=O)=O [Compound 336, 2-[benzyl(1H-indol-5-yl)amino]-5-methyl-N-methylsulfonyl-thiazole-4-carboxamide] | > 2000 |
| Cc1sc(N(Cc2ccccc2)c2ccccc2F)nc1C(=O)NS(C)(=O)=O [Compound 30, 2-(N-benzyl-2-fluoro-anilino)-5-methyl-N-methylsulfonyl-thiazole-4-carboxamide] | > 2000 |
| Cc1sc(N(C[C@@H]2CCCC[C@H]2O)c2ccc(C#N)cc2)nc1C(=O)NS(C)(=O)=O (racemic) [Compound 411, 2-[4-cyano-N-[[trans-2-hydroxycyclohexyl]methyl]anilino]-5-methyl-N-methylsulfonyl-thiazole-4-carboxamide] | 794 |
| Cc1sc(N(C[C@H]2CC[C@@H](O)CC2)c2ccc(C#N)cc2)nc1C(=O)NS(C)(=O)=O [Compound 353, 2-[4-cyano-N-[(cis-4-hydroxycyclohexyl)methyl]anilino]-5-methyl-N-methylsulfonyl-thiazole-4-carboxamide] | > 2000 |
| Cc1sc(N(CCc2cccnc2)c2ccc(C#N)cc2)nc1C(=O)NS(C)(=O)=O [Compound 134, 2-[4-cyano-N-[2-(3-pyridyl)ethyl]anilino]-5-methyl-N-methylsulfonyl-thiazole-4-carboxamide] | > 2000 |
| Cc1sc(N(Cc2ccccc2)c2ccccc2Cl)nc1C(=O)NS(C)(=O)=O [Compound 33, 2-(N-benzyl-2-chloro-anilino)-5-methyl-N-methylsulfonyl-thiazole-4-carboxamide] | > 2000 |
| Cc1sc(N(Cc2ccccc2)c2ccc(C#N)cc2)nc1C(=O)NS(=O)(=O)/C=C/c1ccccc1 [Compound 385, 2-(N-benzyl-4-cyano-anilino)-5-methyl-N-[(E)-styryl]sulfonyl-thiazole-4-carboxamide] | 794 |
| Cc1sc(N(CCN2CCCC2=O)c2ccc(C#N)cc2)nc1C(=O)NS(C)(=O)=O [Compound 137, 2-[4-cyano-N-[2-(2-oxopyrrolidin-1-yl)ethyl]anilino]-5-methyl-N-methylsulfonyl-thiazole-4-carboxamide] | > 2000 |
| Cc1sc(N(CC(C)(C)C)c2ccc(C#N)cc2)nc1C(=O)NS(C)(=O)=O [Compound 74, 2-[4-cyano-N-(2,2-dimethylpropyl)anilino]-5-methyl-N-methylsulfonyl-thiazole-4-carboxamide] | > 2000 |
| Cc1sc(N(CCCCO)c2ccc(C#N)cc2)nc1C(=O)NS(C)(=O)=O [Compound 358, 2-[4-cyano-N-(4-hydroxybutyl)anilino]-5-methyl-N-methylsulfonyl-thiazole-4-carboxamide] | > 2000 |
| Cc1sc(N(CC2CCCC2O)c2ccc(C#N)cc2)nc1C(=O)NS(C)(=O)=O (stereo not drawn) [Compound 405, 2-[4-cyano-N-[(2-hydroxycyclopentyl)methyl]anilino]-5-methyl-N-methylsulfonyl-thiazole-4-carboxamide] | > 2000 |
| Cc1sc(N(Cc2ccccc2)c2cccc3c2ccn3C)nc1C(=O)NS(C)(=O)=O [Compound 337, 2-[benzyl-(1-methylindol-4-yl)amino]-5-methyl-N-methylsulfonyl-thiazole-4-carboxamide] | > 2000 |
| Cc1sc(N(Cc2ccc3nc[nH]c3c2)c2ccc(C#N)cc2)nc1C(=O)NS(C)(=O)=O [Compound 389, 2-[N-(3H-benzimidazol-5-ylmethyl)-4-cyano-anilino]-5-methyl-N-methylsulfonyl-thiazole-4-carboxamide] | 1580 |
| Cc1sc(N(Cc2ccccc2)c2ccc(F)c(F)c2)nc1C(=O)NS(C)(=O)=O [Compound 48, 2-(N-benzyl-3,4-difluoro-anilino)-5-methyl-N-methylsulfonyl-thiazole-4-carboxamide] | 398 |
